Our source for the MIC values is ChEMBL document CHEMBL3600376, “Antibacterial activity of diketopiperazines isolated from a marine fungus using t-butoxycarbonyl group as a simple tool for purification” (2015).

Molecules are shown by their SMILES. Converted amounts (≈) assume the structure as drawn. A value given as a limit tells only on which side of the number the result lay.

Common to all, as to type: functional
The test system of one assay is Staphylococcus aureus. Nature of the assay: Antibacterial activity against Staphylococcus aureus ATCC 25923 after 18 hrs by agar diffusion method. The conditions noted are these: ATCC 25923, 18 h. On the technique in general: Agar diffusion results depend on both activity and mobility in agar.
A further assay relates to Bacillus subtilis. Nature of the assay: Antibacterial activity against Bacillus subtilis NCTC 2116 after 18 hrs by agar diffusion method. The following applies: NCTC 2116, 18 h.
The subject of the next assay is Escherichia coli. Nature of the assay: Antibacterial activity against Escherichia coli ATCC 25922 after 18 hrs by agar diffusion method. The conditions noted are these: ATCC 25922, 18 h.

The term MIC denotes the lowest concentration found to suppress growth. With `O=C1N[C@@H](Cc2ccc(O)cc2)C(=O)N2CCC[C@@H]12`, the MIC is 10.2 µg/mL (≈ 39.2 µM) with Staphylococcus aureus, 8.7 µg/mL (≈ 33.4 µM) in the assay with Bacillus subtilis and above 20 µg/mL in the assay with Escherichia coli.
For `COc1ccc2c3c(n(C(=O)OC(C)(C)C)c2c1)[C@H](C=C(C)C)N1C(=O)[C@@H]2CCCN2C(=O)[C@@H]1C3` the same measures were 2.8 µg/mL (≈ 5.84 µM), 3.3 µg/mL (≈ 6.88 µM) and 16.4 µg/mL (≈ 34.2 µM).
The corresponding values for `CC(C)=CCc1c(C[C@H]2C(=O)N3CCC[C@H]3C(=O)N2C(=O)OC(C)(C)C)c2ccccc2n1C(=O)OC(C)(C)C` are 2.2 µg/mL (≈ 3.99 µM), 2.1 µg/mL (≈ 3.81 µM) and 19 µg/mL (≈ 34.4 µM).
Take `CC(C)(C)OC(=O)n1cc(C[C@@H]2NC(=O)[C@@H]3CCCN3C2=O)c2ccccc21`: the MIC was 8.9 µg/mL (≈ 23.2 µM) against Staphylococcus aureus, 6.7 µg/mL (≈ 17.5 µM) in the assay with Bacillus subtilis and above 20 µg/mL with Escherichia coli.
In the case of `CCC(C)[C@@H]1NC(=O)[C@@H]2CCCN2C1=O` (stereo partly specified), the figures for the MIC against Staphylococcus aureus, in the assay with Bacillus subtilis and against Escherichia coli were 17.1 µg/mL (≈ 81.3 µM), 15.8 µg/mL (≈ 75.1 µM) and above 20 µg/mL, respectively.
The corresponding values for `CC(C)[C@@H]1NC(=O)[C@H]2CCCN2C1=O` are 15.6 µg/mL (≈ 79.5 µM), 16 µg/mL (≈ 81.5 µM) and 18.5 µg/mL (≈ 94.3 µM).
For `CC(C)[C@@H]1NC(=O)[C@@H]2CCCN2C1=O` the same measures were 16.3 µg/mL (≈ 83.1 µM), 18.2 µg/mL (≈ 92.7 µM) and above 20 µg/mL.
The corresponding values for `CC(C)C[C@@H]1NC(=O)[C@@H]2CCCN2C1=O` are 18.8 µg/mL (≈ 89.4 µM), 15.7 µg/mL (≈ 74.7 µM) and above 20 µg/mL.
Regarding `O=C1N[C@@H](Cc2ccccc2)C(=O)N2CCC[C@@H]12`, the MIC in the assay with Staphylococcus aureus was 15.1 µg/mL (≈ 61.8 µM); against Bacillus subtilis, 17.2 µg/mL (≈ 70.4 µM); against Escherichia coli, above 20 µg/mL.
With `CC1(C)S[C@@H]2[C@H](NC(=O)[C@H](N)c3ccc(O)cc3)C(=O)N2[C@H]1C(=O)O` [AMOXICILLIN], the MIC with Staphylococcus aureus stood at 0.05 µg/mL (≈ 0.137 µM); against Bacillus subtilis, 0.03 µg/mL (≈ 0.0821 µM); against Escherichia coli it was 0.8 µg/mL (≈ 2.19 µM).
For `O=C1N[C@@H](Cc2c[nH]c3ccccc23)C(=O)N2CCC[C@@H]12` [BREVIANAMIDE F] the same measures were 12.6 µg/mL (≈ 44.5 µM), 11.9 µg/mL (≈ 42 µM) and above 20 µg/mL.
The corresponding values for `CN(C)[C@@H]1C(O)=C(C(N)=O)C(=O)[C@@]2(O)C(O)=C3C(=O)c4c(O)cccc4[C@@](C)(O)[C@H]3C[C@@H]12` [TETRACYCLINE] are 1.5 µg/mL (≈ 3.38 µM), 1.2 µg/mL (≈ 2.7 µM) and 3.9 µg/mL (≈ 8.78 µM).
